According to the supplement of paper PMC11451515:

How the values were obtained:
Experiment in all cases: AUC of viability dose-response curve (% viability x log10 dose units); higher = less sensitive
Settings in all cases: 48 h
P12-Ichikawa = tested on: P12-Ichikawa
Summary of the method: (§1)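 Viability of medium-adapted leukemia cells was measured by CellTiter-Glo One luminescence after 48 h at 37°C with library compounds in DMSO. Doses were 11 threefold steps from 47 μM to 0.79 nM, in 1536-well plates at 500 or 1000 cells/well. Signals were normalised per plate to DMSO and cell-free wells and fitted with a four-parameter log-logistic model on log10 dose. Area under the curve was integrated by trapezoidal rule, with curves exceeding full viability scaled and failed quality-control curves removed.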

NOMO1 = tested on: NOMO1
Summary of the method: as §1

SEM cells = tested on: SEM cells
Summary of the method: as §1

[1] = RPMI 5 mM glucose + 10% dialyzed FBS

SMILES | AUC of viability dose-response curve (P12-Ichikawa; HPLM + 10% dialyzed FBS) | AUC of viability dose-response curve (P12-Ichikawa; RPMI 5 mM glucose + 10% FBS) | AUC of viability dose-response curve (P12-Ichikawa; [1]) | AUC of viability dose-response curve (NOMO1; HPLM + 10% dialyzed FBS) | AUC of viability dose-response curve (NOMO1; RPMI 5 mM glucose + 10% FBS) | AUC of viability dose-response curve (NOMO1; [1]) | AUC of viability dose-response curve (SEM cells; HPLM + 10% dialyzed FBS) | AUC of viability dose-response curve (SEM cells; RPMI 5 mM glucose + 10% FBS) | AUC of viability dose-response curve (SEM cells; [1])
CCCc1nc(C(C)(C)O)c(C(=O)O)n1Cc1ccc(-c2ccccc2-c2nn[nH]n2)cc1 | 448 | 452 | 413 | 439 | 454 | 461 | – | – | –
CC(NC1=CC=CC=C1)C\2=C\C(=C/N3C(=O)\C=C(/N=C23)N4CCOCC4)C (centres undefined) | 470 | 456 | 466 | 466 | 451 | 462 | 475 | 451 | 447
COC1=CC2=NC=CC(=C2C=C1)OC3=CN=C(NC(=O)C/4=C(C)/N(CC(C)(C)O)N(C4=O)C5=CC=CC=C5)C=C3 | 425 | 414 | 420 | 430 | 431 | 411 | – | – | –
CC(=O)Oc1ccccc1C(=O)O | 466 | 450 | 450 | 461 | 450 | 452 | 463 | 466 | 469
CC[C@H](CC#N)OC(=O)N[C@@H](C)c1cccc(NC(=O)Nc2ccc(-c3cnco3)c(OC)c2)c1 | 384 | 359 | 363 | 371 | 368 | 379 | 356 | 347 | 408
CN1[C@@H]2CC(OC(=O)[C@@H](CO)c3ccccc3)C[C@H]1[C@H]1O[C@H]12 (some centres undefined) | 474 | 469 | 435 | 452 | 417 | 451 | 445 | 443 | 442
FC(F)(F)c1ccc(/C=C/c2nc(COc3ccc(CCCCn4ccnn4)cc3)co2)cc1 | 338 | 309 | 362 | 360 | 359 | 381 | 445 | 411 | 374
CC1=CC=CC=C1N2\C(=N/C3=C(C(=CC=C3)C)C2=O)C[N]4C=NC5=C4N=CN=C5N | 439 | 412 | 419 | 369 | 427 | 406 | 344 | 308 | 344
CCC(C)SSc1ncc[nH]1 (centres undefined) | 441 | 418 | 393 | 416 | 426 | 432 | 377 | 361 | 323
COC[C@H]1OC(=O)C2=COC3=C2[C@@]1(C)\C4=C(C5CCC(=O)[C@@]5(C)C[C@H]4OC(C)=O)/C3=O (some centres undefined) | – | – | – | – | – | – | 397 | 432 | 356
COC1=NC(=NC(=C1N\C2=N\CCN2)Cl)C | 413 | 450 | 424 | 446 | 429 | 418 | 420 | 380 | 426
[NH2][Pt]1([NH2])[O]CC(=O)[O]1 | 467 | 463 | 439 | 462 | 429 | 432 | 455 | 464 | 407
OC1=CC=C(C=C1)\C2=C\OC3=C(C=CC(=C3)O)C2=O | 446 | 446 | 457 | 473 | 459 | 470 | 472 | 467 | 467
CCC[C@H](NC(=O)/C(C#N)=C/c1cccc(Br)n1)c1ccccc1 | 449 | 447 | 444 | 437 | 454 | 448 | – | – | –
O=C([O-])C(O)Cc1ccc(O)c(O)c1 (centres undefined) | 453 | 452 | 438 | 447 | 416 | 434 | 398 | 413 | 387
C/C=C(/C)C(=O)O[C@H]1C(C)=C2[C@H]([C@@H]1OC(=O)CCCCCCC)[C@@](C)(OC(C)=O)C[C@H](OC(=O)CCC)[C@@]1(O)[C@H]2OC(=O)[C@@]1(C)O | 364 | 297 | 257 | 206 | 224 | 211 | 211 | 183 | 174
CCC1(C)CC(=O)NC1=O (centres undefined) | 458 | 459 | 467 | 437 | 421 | 450 | 465 | 462 | 460
CC(=O)O.Cc1c(-c2ccc(O)cc2)n(Cc2ccc(OCCN3CCCCCC3)cc2)c2ccc(O)cc12 | 472 | 459 | 446 | 472 | 446 | 469 | 449 | 423 | 418
COc1c(C)cnc(Cn2cnc3c(Cl)nc(N)nc32)c1C | 376 | 334 | 340 | 322 | 324 | 323 | 306 | 293 | 306
O=NN(CCCl)C(=O)NCCCl | 465 | 471 | 472 | 462 | 461 | 463 | 463 | 455 | 456
C[C@]\12CC[C@H](O)CC1=C/CC3C2CC[C@@]\4(C)C3C\C=C4[N]5C=NC6=C5C=CC=C6 (some centres undefined) | 469 | 465 | 470 | 461 | 454 | 461 | 428 | 455 | 466
C[C@@H](NC1=CC=CC=C1C(O)=O)C/2=C/C(=C\N3C(=O)/C=C(\N=C23)N4CCOCC4)C | 407 | 359 | 370 | 338 | 331 | 336 | – | – | –
CC(C)n1nc(-c2cc3cc(O)ccc3[nH]2)c2c(N)ncnc21 | 360 | 332 | 341 | 350 | 399 | 355 | 306 | 327 | 317
